US11072588B2, “Barbituric acid derivatives comprising cationic and lipophilic groups” (UNIVERSITETET I TROMSØ—NORGES ARKTISKE UNIVERSITET, priority 2017, dated 2021)
In brackets after ≈: the same amount, converted by molar mass.

Tests used:
[1] = Determination of haemolytic activity; format: cell-based; details: human red blood cells (washed, from heparinized fresh blood); human RBCs, 1 h, 37° C.; read-out: RBC: haemolytic activity against human RBCs (EC50)
Protocol: Hemolysis was determined using a heparinized fraction (1000 IU/mL) of freshly drawn blood. Blood collected in EDTA containing test tubes (Vacutest®, KIMA, Arzergrande, Italy) was used for determination of the hematocrit (hct). The heparinized blood was washed 3× with pre-warmed PBS and adjusted to a final hct of 4%. Derivatives in DMSO (50 mM) were added to a 96-well polypropylene V-bottom plate (NUNC, Fisher Scientific, Oslo, Norway) and serially diluted. The test concentration range was 500-4 μM with DMSO contents ≤1%. A solution of 1% triton X-100 was used as positive control for 100% hemolysis. As negative control a solution of 1% DMSO in PBS buffer was included. No signs of DMSO toxicity were detected. RBCs (1% v/v final concentration) were added to the well plate and incubated at 37° C. and 800 rpm for 1 h. After centrifugation (5 min, 3000 g), 100 μL of each well were transferred to a 96-well flat bottom plate and absorbance was measured at 545 nm with a microplate reader (VersaMax™, Molecular Devices, Sunnyvale, Calif., USA). The percentage of hemolysis was calculated as the ratio of the absorbance in the derivative-treated and surfactant treated samples, corrected for the PBS background. Three independent experiments were performed and EC50 values are presented as averages.

P. aeruginosa 50692172 = experiment: MIC, multi-resistant clinical isolate; format: cell-based, Pseudomonas aeruginosa; details: for MIC: Pseudomonas aeruginosa, read-out: Antimicrobial activity (MIC); for selectivity index (EC50/MIC): RBC EC50 / MIC
P. aeruginosa K34-7 = experiment: MIC, multi-resistant clinical isolate; format: cell-based, Pseudomonas aeruginosa; details: for MIC: Pseudomonas aeruginosa, K347, read-out: Antimicrobial activity (MIC); for selectivity index (EC50/MIC): RBC EC50 / MIC, P. aeruginosa K34-7
K. pneumoniae 50531633 = experiment: MIC, multi-resistant clinical isolate; format: cell-based, Klebsiella pneumoniae; details: K. pneumoniae 50531633, resistant to colistin; for MIC: Klebsiella pneumoniae, 24 h, read-out: Antimicrobial activity (MIC); for selectivity index (EC50/MIC): RBC EC50 / MIC
Protocol: (§1) Working solutions of the test derivatives were prepared with up to 100% DMSO and stored at −20° C. If necessary, the solutions were heated to 40-80° C. before testing to facilitate complete dissolution. Double-distilled water was used in all dilutions prepared. […] A microdilution susceptibility test was used for MIC determination according to Clinical and Laboratory Standards Institute, “Methods for Dilution Antimicrobial Sisceptibility Tests for Bacteria That Graw Aerobically”, Approved Standard M07-A9, edition 2012, with modifications as described by Igumnova et al (Bioorg Med Chem, 2016, 24 (22), 5884-5894).
(§2) Briefly, the bacterial inoculum was adjusted to approximately 2.5-3×10^4 cells/mL in Mueller-Hinton broth (MHB, Difco Laboratories, USA), and incubated in a ratio of 1:1 with test derivatives in polystyrene 96-well flat-bottom microplates (NUNC, Roskilde, Denmark). Positive growth control (without test derivatives) and negative control (without bacteria) were included. The reference antibiotic was oxytetracycline hydrochloride (Sigma Aldrich, Saint Louis, Mo., USA). The microplates were incubated in an EnVision microplate reader (Perkin-Elmer, Turku, Finland) placed in an incubator set to 35° C. for 48 h. The MIC value was defined as the lowest concentration of derivative resulting in no bacterial growth as determined by OD600 measurement. All derivatives were tested in three parallels.
(§3) The MIC was determined as explained above with some exceptions; working solutions of test derivatives were prepared from concentrated DMSO stocks stored at room temperature, the density of the bacterial inoculum was increased 40× to 1-1.2×10^6 cells/mL, enterococci were incubated in Brain Heart Infusion broth (BHIB, Difco Laboratories, USA), the microplates were incubated for 24 h, and the derivatives were tested in four parallels.

K. pneumoniae 50667959 = experiment: MIC, multi-resistant clinical isolate; format: cell-based, Klebsiella pneumoniae; details: for MIC: Klebsiella pneumoniae, read-out: Antimicrobial activity (MIC); for selectivity index (EC50/MIC): RBC EC50 / MIC
Protocol: as §1, §2, §3

K. pneumoniae K47-25 = experiment: MIC, multi-resistant clinical isolate; format: cell-based, Klebsiella pneumoniae; details: for MIC: Klebsiella pneumoniae, K4725, 24 h, read-out: Antimicrobial activity (MIC)
Protocol: as §1, §2, §3

K. pneumoniae K66-45 = experiment: MIC, multi-resistant clinical isolate; format: cell-based, Klebsiella pneumoniae; details: for MIC: Klebsiella pneumoniae, K6645, read-out: Antimicrobial activity (MIC); for selectivity index (EC50/MIC): RBC EC50 / MIC, K. pneumoniae K66-45
Protocol: as §1, §2, §3

A. baumanii K12-21 = experiment: MIC, multi-resistant clinical isolate; format: cell-based, Acinetobacter baumannii; details: for MIC: Acinetobacter baumannii, K1221, read-out: Antimicrobial activity (MIC); for selectivity index (EC50/MIC): RBC EC50 / MIC
Protocol: as §1, §2, §3

A. baumanii K44-35 = experiment: MIC, multi-resistant clinical isolate; format: cell-based, Acinetobacter baumannii; details: for MIC: Acinetobacter baumannii, K4435, read-out: Antimicrobial activity (MIC); for selectivity index (EC50/MIC): RBC EC50 / MIC
Protocol: as §1, §2, §3

A. baumanii K47-42 = experiment: MIC, multi-resistant clinical isolate; format: cell-based, Acinetobacter baumannii; details: for MIC: Acinetobacter baumannii, K4742, read-out: Antimicrobial activity (MIC); for selectivity index (EC50/MIC): RBC EC50 / MIC
Protocol: as §1, §2, §3

A. baumanii K55-13 = experiment: MIC, multi-resistant clinical isolate; format: cell-based, Acinetobacter baumannii; details: for MIC: Acinetobacter baumannii, K5513, read-out: Antimicrobial activity (MIC); for selectivity index (EC50/MIC): RBC EC50 / MIC
Protocol: as §1, §2, §3

A. baumanii K63-58 = experiment: MIC, multi-resistant clinical isolate; format: cell-based, Acinetobacter baumannii; details: A. baumanii K63-58, resistant to colistin; for MIC: Acinetobacter baumannii, K6358, 24 h, read-out: Antimicrobial activity (MIC); for selectivity index (EC50/MIC): RBC EC50 / MIC
Protocol: as §1, §2, §3

[2] = tested on: antibiotic susceptible Gram-positive and Gram-negative reference strains; experiment: MIC assay, ranges over the reference strains; format: cell-based; details: range over S. aureus, C. glutamicum, E. coli, P. aeruginosa reference strains; read-out: MIC values against all the reference strains
Protocol: as §1, §2

K. pneumoniae 50625602 = experiment: MIC, multi-resistant clinical isolate; format: cell-based, Klebsiella pneumoniae; details: for MIC: Klebsiella pneumoniae, read-out: Antimicrobial activity (MIC); for selectivity index (EC50/MIC): RBC EC50 / MIC
Protocol: as §1, §2, §3

Row | Compound | EC50 at 1 h [1] [µg/mL] | MIC (P. aeruginosa 50692172) [µg/mL] | selectivity index (EC50/MIC) (P. aeruginosa 50692172) | MIC (P. aeruginosa K34-7) [µg/mL] | selectivity index (EC50/MIC) (P. aeruginosa K34-7) | MIC (K. pneumoniae 50531633) [µg/mL] | selectivity index (EC50/MIC) (K. pneumoniae 50531633) | MIC (K. pneumoniae 50667959) [µg/mL] | selectivity index (EC50/MIC) (K. pneumoniae 50667959) | MIC (K. pneumoniae K47-25) [µg/mL] | MIC (K. pneumoniae K66-45) [µg/mL] | selectivity index (EC50/MIC) (K. pneumoniae K66-45) | MIC (A. baumanii K12-21) [µg/mL] | selectivity index (EC50/MIC) (A. baumanii K12-21) | MIC (A. baumanii K44-35) [µg/mL] | selectivity index (EC50/MIC) (A. baumanii K44-35) | MIC (A. baumanii K47-42) [µg/mL] | selectivity index (EC50/MIC) (A. baumanii K47-42) | MIC (A. baumanii K55-13) [µg/mL] | selectivity index (EC50/MIC) (A. baumanii K55-13) | other results
1 | NCCCCN1C(=O)N(CCCCN)C(=O)C(Cc2cc(Br)cc(Br)c2)(Cc2cc(Br)cc(Br)c2)C1=O [7(ii)] | 83 (≈ 108 µM) | 16 (≈ 20.9 µM) | (5) | 16 (≈ 20.9 µM) | (5) | 8 (≈ 10.4 µM) | (10) | 16 (≈ 20.9 µM) | (5) | 16 (≈ 20.9 µM) | 16 (≈ 20.9 µM) | (5) | 16 (≈ 20.9 µM) | (5) | 16 (≈ 20.9 µM) | (5) | 16 (≈ 20.9 µM) | (5) | 16 (≈ 20.9 µM) | (5) | selectivity index (EC50/MIC) (K. pneumoniae K47-25; RBC EC50 / MIC, K. pneumoniae K47-25, resistant to colistin): (5); MIC (A. baumanii K63-58): 16 µg/mL (≈ 20.9 µM); selectivity index (EC50/MIC) (A. baumanii K63-58): (5); MIC [2]: 1 to 8 µg/mL (≈ 1.31 to 10.4 µM)
2 | NCCCCN1C(=O)N(CCCCN)C(=O)C(Cc2ccc(F)c3ccccc23)(Cc2ccc(F)c3ccccc23)C1=O [7(v), 1,3-bis(4-aminobutyl)-5,5-bis((4-fluoronaphtalen-1-yl)methyl)pyrimidin-2,4,6(1H,3H,5H)-trione] | 160 (≈ 273 µM) | 16 (≈ 27.3 µM) | (10) | 32 (≈ 54.5 µM) | (5) | 16 (≈ 27.3 µM) | (10) | 32 (≈ 54.5 µM) | (5) | > 32 | 32 (≈ 54.5 µM) | (5) | 32 (≈ 54.5 µM) | (5) | 32 (≈ 54.5 µM) | (5) | 32 (≈ 54.5 µM) | (5) | 32 (≈ 54.5 µM) | (5) | MIC (K. pneumoniae 50625602): 32 µg/mL (≈ 54.5 µM); selectivity index (EC50/MIC) (K. pneumoniae 50625602): (5); MIC (A. baumanii K63-58): 16 µg/mL (≈ 27.3 µM); selectivity index (EC50/MIC) (A. baumanii K63-58): (10)
3 | NCCCCN1C(=O)N(CCCCN)C(=O)C(Cc2cc(C(F)(F)F)cc(C(F)(F)F)c2)(Cc2cc(C(F)(F)F)cc(C(F)(F)F)c2)C1=O [7(vi)] | 183 (≈ 253 µM) | 32 (≈ 44.3 µM) | (6) | 32 (≈ 44.3 µM) | (6) | 32 (≈ 44.3 µM) | (6) | 32 (≈ 44.3 µM) | (6) | > 32 | 32 (≈ 44.3 µM) | (6) | 16 (≈ 22.1 µM) | (11) | 32 (≈ 44.3 µM) | (6) | 32 (≈ 44.3 µM) | (6) | 32 (≈ 44.3 µM) | (6) | MIC (K. pneumoniae 50625602): 32 µg/mL (≈ 44.3 µM); selectivity index (EC50/MIC) (K. pneumoniae 50625602): (6); MIC (A. baumanii K63-58): 32 µg/mL (≈ 44.3 µM); selectivity index (EC50/MIC) (A. baumanii K63-58): (6)
